The structures appear in SMILES notation.

The first assay addresses T1, NO synthase (Rattus norvegicus, UniProt P29476).
T1 construct: the supernatant was then removed by decantation and frozen in portions at −80° C; from tissue; host or cells: rat cerebellum, 20,000 g supernatant of homogenate
As to the kind of experiment: HTS-NOS assay (NOS assay): conversion of radioactive arginine, cation-exchanger filter plate. The assay is classed as biochemical. Conditions: 10 μM. The protocol:
This assay enables the percentage inhibition of NO synthase by an active ingredient to be determined by measuring the NOS activity under the action of the active ingredient. NO synthase is mixed together with radioactively labelled arginine and the active ingredient under suitable conditions. After terminating the NO-forming reaction at a given time, the amount of unconverted arginine is determined directly or indirectly. A comparison of that amount with the amount of arginine that remains in a mixture of NOS and arginine without the addition of active ingredient and under otherwise identical conditions gives the % inhibition of NO synthase by the tested active ingredient. This assay can be carried out as follows:
(a) incubation of NO synthase with labelled arginine as substrate in a reaction vessel,
(b) separation of the labelled arginine from the labelled citrulline optionally formed as a product of the enzymatic reaction, at a time at which the citrulline concentration is increasing,
(c) measurement of the amount of arginine remaining in each case.
Separation is carried out over a filter plate membrane.
This NOS assay is suitable especially for “high throughput screening” (HTS) on microtitre plates (MTP).
In this HTS-NOS assay, radioactive arginine is used as substrate. The assay volume can be chosen in the range from 25 μl to 250 μl, according to the type of microtitre plate (MTP). Depending on the source of the enzyme used, co-factors and co-enzymes are added. Incubation of the batches on this microtitre plate (assay MTP) according to step (a) is carried out at room temperature and is for 5 to 60 minutes according to the enzyme activity used (units). At the end of the incubation (step (a)), the plate is placed into a cell harvester which is equipped with a MTP having a cation-exchanger membrane as the filter base (filter MTP). All batches of the assay MTP are transferred to the filter MTP and filtered off with suction over a cation-exchanger filter plate, a paper filter charged with phosphate groups. The filter MTP is then washed with buffer or water. By means of this procedure, the arginine substrate that remains is bound to the cation exchanger, while the enzymatically formed radioactive citrulline is washed out quantitatively. After drying the filter MTP and adding scintillation liquid, the bound arginine can be counted using a scintillation counter. An uninhibited NOS reaction is reflected in low radioactivity. An inhibited enzyme reaction means that the radioactive arginine has not been converted. This means that a high level of radioactivity is found on the filter.
Rat cerebella were used as the starting tissue. The animals were anaesthetized and sacrificed, the brain tissue, the cerebellum, was removed by dissection, 1 ml of enzyme preparation buffer was added per rat cerebellum (4° C.), and disintegration was carried out using a Polytron homogeniser for 1 minute at 6000 rpm, followed by centrifugation for 15 minutes at 4° C. and 20,000 g; the supernatant was then removed by decantation and frozen in portions at −80° C. (the precipitate was discarded).
96-well MTP having a well capacity of <250 μl were used.
Pipetting sequence: see Table 1.
When the pipetting operation was complete, a cover was placed on the MTP (assay MTP), and incubation was at 25° C. (room temperature (RT)) for from 5 to 60 minutes, according to the amount and activity of the enzyme used.
The contents of the assay MTP were then transferred with the aid of a 96-well cell harvester to a 96-well cation exchanger MTP (filter MTP) and filtered off with suction. This was followed by washing once with […] of H2O (from a bath).
The plate was then dried for 1 hour at 60° C. in a drying cabinet. The underside of the filter MTP was then accurately sealed from beneath with a “back seal”. 35 μl of scintillation fluid per well were then added by means of a pipette. The upper side of the plate was also sealed with a “top seal”. […]
Regarding `C#[N+]CCCCCCNc1c(-c2ccccc2C(F)(F)F)nc2cc(C)cc(C)n12` [Example 75, {6-[5,7-Dimethyl-2-(2-trifluorO-methyl-phenyl)-imidazo[1,2-a]pyridin-3-ylamino]-hexyl}-methylidyne-ammonium], the “HTS-NOS assay: % inhibition (10 μM)” value stood at 56%.

`C#[N+]CCCCCCNc1c(C2CCCCC2)nc2cc(C)cc(C)n12` [Example 88, [6-(2-Cyclohexyl-5,7-dimethyl-imidazo[1,2-a]pyridin-3-ylamino)-hexyl]-methylidyne-ammonium]: the “HTS-NOS assay: % inhibition (10 μM)” value worked out at 57%.

The assay is the same for the next values; noted with them: read-out: HTS-NOS assay: % inhibition (10 μM).
The term inhibition denotes how much of the control response was suppressed. Take `Cc1cc(C)n2c(NC(C)(C)CC(C)(C)C)c(-c3ccc(CO)o3)nc2c1` [Example 62, {5-[5,7-Dimethyl-3-(1,1,3,3-tetramethyl-butylamino)-imidazo[1,2-a]pyridin-2-yl]-furan-2-yl}-methanol]: the inhibition at 10 µM came out at 55%.

On to `Cc1ccn2c(NC(C)(C)CC(C)(C)C)c(-c3cccc4ccccc34)nc2c1` [Example 63, (7-Methyl-2-naphthalen-1-yl-imidazo[1,2-a]-pyridin-3-yl)-(1,1,3,3-tetramethyl-butyl)-amine], for which the inhibition at 10 µM came to 52%.

Take `Cc1ccn2c(NC(C)(C)C)c(-c3ccc(CO)o3)nc2c1` [Example 64, [5-(3-Tert-butylamino-7-methyl-imidazo[1,2-a]pyridin-2-yl)-furan-2-yl]-methanol]: the inhibition at 10 µM is 52%.

Consider `Cc1ccn2c(NC(C)(C)C)c(-c3ccc(C4OCCO4)o3)nc2c1` [Example 65, Tert-butyl-[2-(5-[1,3]dioxolan-2-yl-furan-2-yl)-7-methyl-imidazo[1,2-a]pyridin-3-yl]-amine], for which the inhibition at 10 µM came to 62%.

As for `Cc1cc(C)n2c(NC(C)(C)CC(C)(C)C)c(-c3cc4ccccc4o3)nc2c1` [Example 66, (2-Benzofuran-2-yl-5,7-dimethyl-imidazo[1,2-a]pyridin-3-yl)-(1,1,3,3-tetramethyl-butyl)-amine], the inhibition at 10 µM came out at 53%.

As to `Cc1cc(C)n2c(NC(C)(C)C)c(-c3ccc(C(=O)O)o3)nc2c1` [Example 67, 5-(3-Tert-butylamino-5,7-dimethyl-imidazo[1,2-a]pyridin-2-yl)-furan-2-carboxylic acid], the inhibition at 10 µM is 56%.

In the case of `Cc1ccn2c(NC(C)(C)C)c(-c3ccco3)nc2c1` [Example 68, Tert-butyl-(2-furan-2-yl-7-methyl-imidazo[1,2-a]pyridin-3-yl)-amine], the inhibition at 10 µM came out at 57%.

On to `Cc1ccn2c(NC3CCCCC3)c(C)nc2c1` [Example 69, Cyclohexyl-(2,7-dimethyl-imidazo[1,2-a]-pyridin-3-yl)-amine], for which the inhibition at 10 µM was found to be 55%.

For the molecule `Cc1cccn2c(NC(C)(C)CC(C)(C)C)c(-c3cccc(Cl)c3Cl)nc12` [Example 70, [2-(2,3-Dichlorophenyl)-8-methyl-imidazo[1,2-a]pyridin-3-yl]-(1,1,3,3-tetramethyl-butyl)-amine], the inhibition at 10 µM is 52%.

On to `Cc1ccc(-c2nc3cc(C)ccn3c2NC(C)(C)CC(C)(C)C)cc1` [Example 71, (7-Methyl-2-p-tolyl-imidazo[1,2-a]pyridin-3-yl)-(1,1,3,3-tetramethyl-butyl)-amine], for which the inhibition at 10 µM is 58%.

For `COc1ccccc1-c1nc2cc(C)ccn2c1Nc1c(C)cccc1C` [Example 72, (2,6-Dimethyl-phenyl)-[2-(2-methoxy-phenyl)-7-methyl-imidazo[1,2-a]pyridin-3-yl]-amine], the inhibition at 10 µM came to 53%.

For `CCCCNc1c(-c2cccc(O)c2)nc2cc(C)cc(C)n12` [Example 73, 3-(3-Butylamino-5,7-dimethyl-imidazo[1,2-a]pyridin-2-yl)-phenol], the inhibition at 10 µM was 61%.

On to `CCCCNc1c(-c2cccc(OC)c2OC)nc2cc(C)ccn12` [Example 74, Butyl-[2-(2,3-dimethoxy-phenyl)-7-methyl-imidazo[1,2-a]pyridin-3-yl]-amine], for which the inhibition at 10 µM is 62%.

As for `Cc1ccn2c(NC(C)(C)C)c(-c3ccccn3)nc2c1` [Example 76, Tert-butyl-(7-methyl-2-pyridin-2-yl-imidazo[1,2-a]pyridin-3-yl)-amine], the inhibition at 10 µM was determined as 67%.

Consider `Cc1cc(C)n2c(NC3CCCCC3)c(C3CCCCC3)nc2c1` [Example 77, Cyclohexyl-(2-cyclohexyl-5,7-dimethyl-imidazo[1,2-a]pyridin-3-yl)-amine], for which the inhibition at 10 µM is 63%.

On to `Cc1cc(C)n2c(Nc3c(C)cccc3C)c(-c3cccc(Cl)c3Cl)nc2c1` [Example 78, [2-(2,3-Dichlorophenyl)-5,7-dimethyl-imidazo[1,2-a]pyridin-3-yl]-(2,6-dimethyl-phenyl)-amine], for which the inhibition at 10 µM turned out to be 61%.

Take `COc1ccccc1-c1nc2cc(C)cc(C)n2c1Nc1c(C)cccc1C` [Example 79, (2,6-Dimethyl-phenyl)-[2-(2-methoxy-phenyl)-5,7-dimethyl-imidazo[1,2-a]pyridin-3-yl]-amine]: the inhibition at 10 µM stood at 66%.

Regarding `Cc1ccn2c(NC(C)(C)CC(C)(C)C)c(-c3ccc(-c4ccccc4Cl)o3)nc2c1` [Example 80, {2-[5-(2-Chlorophenyl)-furan-2-yl]-7-methyl-imidazo[1,2-a]pyridin-3-yl}-(1,1,3,3-tetramethyl-butyl)-amine], the inhibition at 10 µM was 52%.

For `Cc1ccn2c(NC(C)(C)CC(C)(C)C)c(-c3ccc(C(=O)O)o3)nc2c1` [Example 81, 5-[7-Methyl-3-(1,1,3,3-tetramethyl-butylamino)-imidazo[1,2-a]pyridin-2-yl]-furan-2-carboxylic acid], the inhibition at 10 µM worked out at 60%.

`COc1ccccc1-c1nc2c(C)cccn2c1NC1CCCCC1` [Example 82, Cyclohexyl-[2-(2-methoxy-phenyl)-8-methyl-imidazo[1,2-a]pyridin-3-yl]-amine]: the inhibition at 10 µM came to 62%.

Turning to `Cc1ccn2c(NC(C)(C)CC(C)(C)C)c(-c3cccc(O)c3)nc2c1` [Example 83, 3-[7-Methyl-3-(1,1,3,3-tetramethyl-butylamino)-imidazo[1,2-a]pyridin-2-yl]-phenol], the inhibition at 10 µM was 60%.

Regarding `Cc1cc(C)n2c(NC(C)(C)CC(C)(C)C)c(-c3cccc(Cl)c3Cl)nc2c1` [Example 84, [2-(2,3-Dichlorophenyl)-5,7-dimethyl-imidazo[1,2-a]pyridin-3-yl]-(1,1,3,3-tetramethyl-butyl)-amine], the inhibition at 10 µM turned out to be 54%.

As for `Cc1ccn2c(NC(C)(C)CC(C)(C)C)c(-c3ccc(Cl)cc3Cl)nc2c1` [Example 85, [2-(2,4-Dichlorophenyl)-7-methyl-imidazo[1,2-a]pyridin-3-yl]-(1,1,3,3-tetramethyl-butyl)-amine], the inhibition at 10 µM came out at 61%.

Consider `Cc1ccn2c(NC(C)(C)CC(C)(C)C)c(-c3ccc(Br)o3)nc2c1` [Example 86, [2-(5-Bromofuran-2-yl)-7-methyl-imidazo[1,2-a]pyridin-3-yl]-(1,1,3,3-tetramethyl-butyl)-amine], for which the inhibition at 10 µM amounted to 54%.

On to `Cc1cc(C)n2c(NC3CCCCC3)c(-c3ccc(C(=O)O)o3)nc2c1` [Example 87, 5-(3-Cyclohexylamino-5,7-dimethyl-imidazo[1,2-a]pyridin-2-yl)-furan-2-carboxylic acid], for which the inhibition at 10 µM came out at 54%.

Consider `Cc1cc(C)n2c(NC(C)(C)CC(C)(C)C)c(-c3ccc(Cl)cc3Cl)nc2c1` [Example 89, [2-(2,4-Dichlorophenyl)-5,7-dimethyl-imidazo[1,2-a]pyridin-3-yl]-(1,1,3,3-tetramethyl-butyl)-amine], for which the inhibition at 10 µM was 68%.

The values above are taken from patent publication US20040023972A1, “Use of substituted imidazo[1,2-a]-pyridin-, -pyrimidin-and-pyrazin-3-yl-amine derivatives in the preparation of medicaments for inhibiting NOS” (Gruenenthal GmbH, priority 2000, published 2004).
